Each structure is given as a SMILES string. Counter-ions that a name gives are not always drawn.

For this test, the target named is T1, human recombinant ENPP1 (Homo sapiens, UniProt P22413).
T1 construct: purchased R & D systems
T1 sequence (P22413 1-925): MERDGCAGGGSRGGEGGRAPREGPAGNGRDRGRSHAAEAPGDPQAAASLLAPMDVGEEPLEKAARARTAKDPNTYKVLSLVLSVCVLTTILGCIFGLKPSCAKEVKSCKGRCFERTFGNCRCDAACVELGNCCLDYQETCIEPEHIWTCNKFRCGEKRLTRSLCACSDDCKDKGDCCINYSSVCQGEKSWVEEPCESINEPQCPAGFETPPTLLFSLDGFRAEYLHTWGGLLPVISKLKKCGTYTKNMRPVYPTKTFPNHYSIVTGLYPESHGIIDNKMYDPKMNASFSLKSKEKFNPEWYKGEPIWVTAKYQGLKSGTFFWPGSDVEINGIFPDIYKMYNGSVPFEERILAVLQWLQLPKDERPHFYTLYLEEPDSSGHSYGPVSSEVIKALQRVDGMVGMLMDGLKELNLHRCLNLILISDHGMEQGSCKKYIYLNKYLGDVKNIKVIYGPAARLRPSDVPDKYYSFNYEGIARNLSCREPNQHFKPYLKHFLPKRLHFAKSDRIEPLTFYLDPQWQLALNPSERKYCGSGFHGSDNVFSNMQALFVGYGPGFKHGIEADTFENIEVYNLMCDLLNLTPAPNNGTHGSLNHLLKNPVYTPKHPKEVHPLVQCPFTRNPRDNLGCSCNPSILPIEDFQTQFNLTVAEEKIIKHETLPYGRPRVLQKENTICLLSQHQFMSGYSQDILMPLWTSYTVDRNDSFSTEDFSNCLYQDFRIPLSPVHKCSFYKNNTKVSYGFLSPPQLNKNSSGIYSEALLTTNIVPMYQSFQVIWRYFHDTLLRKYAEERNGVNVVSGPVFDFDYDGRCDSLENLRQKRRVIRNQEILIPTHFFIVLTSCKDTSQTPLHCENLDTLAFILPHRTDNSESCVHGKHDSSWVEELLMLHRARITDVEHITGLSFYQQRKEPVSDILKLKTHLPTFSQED
Kind of test: ENPP1 enzyme assay with cGAMP substrate (AMP-Glo luminescence). Type of test: biochemical. Particulars: human recombinant ENPP1 3 ng/reaction, cGAMP 5 μM, 37° C. 90 minutes, read-out: Enzymatic activity (ENPP1 IC50). On the procedure:
ENPP1 hydrolyzes nucleotides or nucleotide derivatives to produce nucleoside -5′-monophosphate and pyrophosphate. in addition, ENPP1 hydrolyzes 2′,3′-cGAMP to produce 5′-adenosine monophosphate (AMP) and 5′-guanosine monophosphate (GMP). AMP produced from the reaction is measured using the AMP-Glo® kit (Promega). The AMP-Glo® kit contains two reagents. The first reagent terminates the AMP-producing enzymatic reaction, removes ATP and converts the produced AMP into ADP. The second reagent converts ADP to ATP which is used to generate luminescence in the luciferase reaction. The amount of luminescence measured is proportional to the amount of AMP produced by ENPP1.
The final reaction mixture contains 50 mM Tris (pH 8.5) buffer, 250 mM NaCl, 0.5 mM. CaCl2, 1 μM ZnCl2, 5% glycerol and 1% DMSO. […] The reaction was initiated by addition of cGAMP (at a final concentration of 5 μM) and reacted at 37° C. for 90 minutes. At the end of the reaction, 10 μl of the AMP-Glo first reagent was added to stop the reaction and the result was stored at room temperature for […]. After storage, 20 μl of an AMP detection solution (a mixture of AMP-Glo II reagent and Kinase-Gio at a ratio of 1:100) was added and stored at room. temperature for 1 hour. Luminescence signals were measured using a Victor® plate reader (Perkin Elmer). The maximal activity control (containing enzymes and substrates only in the presence of 1% DMSO; MAX) and the minimal activity control (containing substrates and 1% DMSO; MIN) were evaluated simultaneously. In each experiment, serially diluted reference ENPP1 inhibitors were tested together. IC50, indicating % residual activity versus compound concentration was determined by fitting inhibition curves using the 3-parameter analysis of GraphPad Prism® software. Serially diluted samples of one compound were tested two or more times and an average IC50 of each compound was calculated.
As a reminder, the IC50 is the point on the concentration scale where inhibition reaches its midpoint. `Cn1nc(-c2ccc3c(c2)CCN(S(=O)(=O)NC(=O)OC(C)(C)C)C3)c2ccccc2c1=O` [Compound No. 84, tert-butyl ((6-(3-methyl-4-oxo-3,4-dihydrophthalazin-1-yl)-3,4-dihydroisoquinolin-2(1H)-yl)sulfonyl)carbamate]: the half-maximal inhibitory concentration (IC50) is greater than 10000 nM.

For `COc1cc2c(-c3ccc4c(c3)CCN(S(=O)(=O)NC(=O)OC(C)(C)C)C4)n[nH]c(=O)c2cc1OC` [Compound No. 85, tert-butyl ((6-(6,7-dimethoxy-4-oxo-3,4-dihydrophthalazin-1-yl)-3,4-dihydroisoquinolin-2(1H)-yl)sulfonyl)carbamate], the IC50 was greater than 10000 nM. As for `Cn1nc(-c2cccc(NS(N)(=O)=O)c2)c2ccccc2c1=O` [Compound No. 88, N-(3-(3-methyl-4-oxo-3,4-dihydrophthalazin-1-yl)phenyl)sulfamide hydrochloride], the figure is less than 1000 nM. As for `NS(=O)(=O)Nc1cccc(-c2nn(Cc3ccccc3)c(=O)c3ccccc23)c1` [Compound No. 89, N-(3-(3-benzyl-4-oxo-3,4-dihydrophthalazin-1-yl)phenyl)sulfamide hydrochloride], the 50% inhibitory concentration (IC50) was less than 1000 nM. Consider `NS(=O)(=O)NCc1cccc(-c2nn(Cc3ccccc3)c(=O)c3ccccc23)c1` [Compound No. 90, N-(3-(3-benzyl-4-oxo-3,4-dihydrophthalazin-1-yl)benzyl)sulfamide hydrochloride], for which the concentration for half-maximal inhibition (IC50) was greater than 10000 nM. As for `NS(=O)(=O)Nc1ccc(-c2n[nH]c(=O)c3ccccc23)cc1` [Compound No. 91, N-(4-(4-oxo-3,4-dihydrophthalazin-1-yl)phenyl)sulfamide], the figure is 1000 to 10000 nM; as for `Cn1nc(-c2ccc(NS(N)(=O)=O)cc2)c2ccccc2c1=O` [Compound No. 92, N-(4-(3-methyl-4-oxo-3,4-dihydrophthalazin-1-yl)phenyl)sulfamide], less than 1000 nM; as for `NS(=O)(=O)Nc1ccc(-c2nn(Cc3ccccc3)c(=O)c3ccccc23)cc1` [Compound No. 93, N-(4-(3-benzyl-4-oxo-3,4-dihydrophthalazin-1-yl)phenyl)sulfamide], greater than 10000 nM. For `Cn1nc(-c2cccc(CNS(N)(=O)=O)c2)c2ccccc2c1=O` [Compound No. 94, N-(3-(3-methyl-4-oxo-3,4-dihydrophthalazin-1-yl)benzyl)sulfamide trifluoroacetic acid], the IC50 is less than 1000 nM. Consider `NS(=O)(=O)NCc1cccc(-c2n[nH]c(=O)c3ccccc23)c1` [Compound No. 95, N-(3-(3-oxo-3,4-dihydrophthalazin-1-yl)benzyl)sulfamide hydrochloride], for which the half-inhibitory concentration (IC50) is less than 1000 nM. For the compound `NS(=O)(=O)NCc1ccc(-c2n[nH]c(=O)c3ccccc23)cc1` [Compound No. 96, N-(4-(4-oxo-3,4-dihydrophthalazin-1-yl)benzyl)sulfamide hydrochloride], the half-maximal inhibitory concentration (IC50) was less than 1000 nM. `Cn1nc(-c2ccc(CNS(N)(=O)=O)cc2)c2ccccc2c1=O` [Compound No. 97, N-(4-(3-methyl-4-oxo-3,4-dihydrophthalazin-1-yl)benzyl)sulfamide hydrochloride]: the IC50 is less than 1000 nM. As for `CCn1nc(-c2ccc(CNS(N)(=O)=O)cc2)c2ccccc2c1=O` [Compound No. 98, N-(4-(3-ethyl-4-oxo-3,4-dihydrophthalazin-1-yl)benzyl)sulfamide hydrochloride], the figure is 1000 to 10000 nM; as for `CC(C)n1nc(-c2ccc(CNS(N)(=O)=O)cc2)c2ccccc2c1=O` [Compound No. 99, N-(4-(3-isopropyl-4-oxo-3,4-dihydrophthalazin-1-yl)benzyl)sulfamide trifluoroacetic acid], greater than 10000 nM. The same measure for `NS(=O)(=O)NCc1ccc(-c2nn(-c3ccccc3)c(=O)c3ccccc23)cc1` [Compound No. 100, N-(4-(4-oxo-3-phenyl-3,4-dihydrophthalazin-1-yl)benzyl)sulfamide hydrochloride]: less than 1000 nM; for `NS(=O)(=O)NCc1ccc(-c2nn(Cc3ccccc3)c(=O)c3ccccc23)cc1` [Compound No. 101, N-(4-(3-benzyl-4-oxo-3,4-dihydrophthalazin-1-yl)benzyl)sulfamide hydrochloride]: 1000 to 10000 nM. Regarding `NS(=O)(=O)NCc1ccc(-c2nn(Cc3ccc(F)cc3)c(=O)c3ccccc23)cc1` [Compound No. 102, N-(4-(3-(4-fluorobenzyl)-4-oxo-3,4-dihydrophthalazin-1-yl)benzyl)sulfamide hydrochloride], the concentration for half-maximal inhibition (IC50) lay within 1000 to 10000 nM. The same measure for `COc1ccc2c(=O)[nH]nc(-c3ccc(CNS(N)(=O)=O)cc3)c2c1` [Compound No. 103, N-(4-(7-methoxy-4-oxo-3,4-dihydrophthalazin-1-yl)benzyl)sulfamide hydrochloride]: less than 1000 nM; for `COc1cc2c(-c3ccc(CNS(N)(=O)=O)cc3)n[nH]c(=O)c2cc1OC` [Compound No. 104, N-(4-(6,7-dimethoxy-4-oxo-3,4-dihydrophthalazin-1-yl)benzyl)sulfamide hydrochloride]: less than 1000 nM. As for `COc1ccc2c(=O)n(C)nc(-c3ccc(CNS(N)(=O)=O)cc3)c2c1` [Compound No. 105, N-(4-(7-methoxy-3-methyl-4-oxo-3,4-dihydrophthalazin-1-yl)benzyl)sulfamide hydrochloride], the half-inhibitory concentration (IC50) was in the range of 1000 to 10000 nM.

`COc1ccc2c(-c3ccc(CNS(N)(=O)=O)cc3)n[nH]c(=O)c2c1` [Compound No. 106, N-(4-(6-methoxy-4-oxo-3,4-dihydrophthalazin-1-yl)benzyl)sulfamide hydrochloride]: the IC50 is 1000 to 10000 nM.

As for `COc1ccc2c(-c3ccc(CNS(N)(=O)=O)cc3)nn(C)c(=O)c2c1` [Compound No. 107, N-(4-(6-methoxy-3-methyl-4-oxo-3,4-dihydrophthalazin-1-yl)benzyl)sulfamide hydrochloride], the concentration for half-maximal inhibition (IC50) was greater than 10000 nM. Take `COc1cc2c(-c3ccc(CNS(N)(=O)=O)cc3)nn(C)c(=O)c2cc1OC` [Compound No. 108, N-(4-(6,7-dimethoxy-3-methyl-4-oxo-3,4-dihydrophthalazin-1-yl)benzyl)sulfamide hydrochloride]: the IC50 is 1000 to 10000 nM. `COc1cc2c(-c3cccc(CNS(N)(=O)=O)c3)n[nH]c(=O)c2cc1OC` [Compound No. 109, N-(3-(6,7-dimethoxy-4-oxo-3,4-dihydrophthalazin-1-yl)-benzyl) sulfamide]: the IC50 fell in the range of 1000 to 10000 nM. In the case of `COc1cc2c(-c3cccc(CNS(N)(=O)=O)c3)nn(C)c(=O)c2cc1OC` [Compound No. 110, N-(3-(6,7-dimethoxy-3-methyl-4-oxo-3,4-dihydrophthalazin-1-yl)-benzyl) sulfamide], the IC50 lay within 1000 to 10000 nM. As for `COc1cc2c(-c3ccc(CNS(N)(=O)=O)c(F)c3)n[nH]c(=O)c2cc1OC` [Compound No. 111, N-(4-(6,7-dimethoxy-4-oxo-3,4-dihydrophthalazin-1-yl)-2-fluorobenzyl)sulfamide hydrochloride], the IC50 is less than 1000 nM. The same measure for `COc1cc2c(-c3ccc(CNS(N)(=O)=O)cc3F)n[nH]c(=O)c2cc1OC` [Compound No. 112, N-(4-(6,7-dimethoxy-4-oxo-3,4-dihydrophthalazin-1-yl)-3-fluorobenzyl)sulfamide hydrochloride]: 1000 to 10000 nM. The same measure for `COc1cc2c(-c3ccc(CN(C)S(N)(=O)=O)c(F)c3)n[nH]c(=O)c2cc1OC` [Compound No. 113, N-(4-(6,7-dimethoxy-4-oxo-3,4-dihydrophthalazin-1-yl)-2-fluorobenzyl)-N-methyl sulfamide hydrochloride]: 1000 to 10000 nM.

The values above are taken from patent publication US20230159469A1, “NOVEL PHTHALAZINE DERIVATIVE HAVING ECTONUCLOEOTIDE PYROPHOSPHATASE/PHOSPHODIESTE RASE INHIBITORY ACTIVITY, AND USE THEREOF” (TXINNO BIOSCIENCE INC., priority 2020, published 2023).
